Test results as given in patent US8436028B2, “CETP inhibitors derived from benzoxazole arylamides” (Merck Sharp & Dohme Corp, priority 2007, dated 2013).
pIC50: −log10 of the molar value.

Target: T1, recombinant human CETP (Homo sapiens, UniProt P11597)
T1 construct: made in house; host or cells: CHO cells
T1 sequence (P11597 18-493): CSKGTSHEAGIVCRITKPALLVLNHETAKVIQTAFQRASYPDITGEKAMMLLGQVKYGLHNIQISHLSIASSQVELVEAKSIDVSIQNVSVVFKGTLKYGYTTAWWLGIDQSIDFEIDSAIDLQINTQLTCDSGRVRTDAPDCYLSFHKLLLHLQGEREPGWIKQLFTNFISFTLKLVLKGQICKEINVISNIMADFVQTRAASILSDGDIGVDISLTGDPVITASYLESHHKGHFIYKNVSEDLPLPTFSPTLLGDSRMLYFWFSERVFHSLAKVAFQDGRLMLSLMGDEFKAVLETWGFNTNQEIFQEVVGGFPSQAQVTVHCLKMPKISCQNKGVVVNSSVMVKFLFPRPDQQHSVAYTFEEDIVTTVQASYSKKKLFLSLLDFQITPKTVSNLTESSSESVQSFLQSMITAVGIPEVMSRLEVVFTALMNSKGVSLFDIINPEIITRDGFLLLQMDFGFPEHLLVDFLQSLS
Assay: CETP assay, CE transfer reaction (BODIPY-CE fluorescence, continuous)
Assay type: biochemical
Conditions: 3% human serum, 25° C., read-out: IC50 value as measured for the CE transfer reaction
Method: An in vitro continuous assay for determining IC50's to identify compounds that are CETP inhibitors was performed based on a modification of the method described by Epps et al. employing BODIPY®-CE as the cholesteryl ester lipid donor and BODIPY®-TG as the triglyceride lipid donor. See Epps et al. (1995) Method for measuring the activities of cholesteryl ester transfer protein (lipid transfer protein), Chem. Phys. Lipids. 77, 51-63.
Particles used in the assay were created from the following materials by probe sonication essentially as described by Epps et al. Synthetic cholesteryl ester (CE) donor HDL particles contained DOPC (Dioleoyl Phosphatidyl Choline), BODIPY®-CE (Molecular Probes C-3927), triolein (a triglyceride), dabcyl dicetylamide, (a non-diffusable quencher molecule to reduce background fluorescence) and apoHDL. Synthetic triglyceride (TG) donor HDL particles contained DOPC, BODIPY®-TG, and apoHDL. BODIPY®-TG was synthesized at room temperature from diolein and the BODIPY containing fatty acid analog 4,4-difluoro-5-(2-thienyl)-4-bora-3a,4a-diaza-s-indacene-3-dodecanoic acid (Molecular Probes) in methylene chloride in the presence of dicyclohexyl carbodimide. Dabcyl dicetylamide was made by heating dabcyl n-succinimide with dicetylamine in DMF at 95° C. overnight in the presence of diisopropylamine catalyst. Native lipoproteins from human blood were used as acceptor particles. Particles having a density less than 1.063 g/ml were collected by ultracentrifugation. These particles include VLDL, IDL, and LDL. Particle concentrations were expressed in terms of protein concentration as determined by BCA assay (Pierce, USA). Particles were stored at 4° C. until use.
Assays were performed in Dynex Microfluor 2 U-bottom black 96-well plates (Cat #7205). An assay cocktail containing CETP, 1×CETP buffer (50 mM Tris, pH 7.4, 100 mM NaCl, 1 mM EDTA), 3% human serum, and half the final concentration of acceptor particles was prepared, and 100 μL of the assay cocktail was added to each well of the plate. Test compounds in DMSO were added in a volume of […]. The plate was mixed on a plate shaker and then incubated at 25° C. for 1 hour. A second assay cocktail containing donor particles, the remaining acceptor particles and 1×CETP buffer was prepared. 47 μL of the second assay cocktail was added to the reaction wells to start the assay. Assays were performed in a final volume of 150 μL. CE transfer reactions were performed as follows: final concentrations of materials were: 2.5 ng/μL CE donor particles, 7.5 ng/μL acceptor particles (each expressed by protein content), 1×CETP buffer, 14-30 nM recombinant human CETP (expressed in CHO cells and partially purified), and up to 2% DMSO when testing compounds; reactions were followed in a fluorescence plate reader (Molecular Devices Spectramax GeminiXS) set for a 45 minute kinetic run at 25° C. which read the samples every 45 sec at Ex=480 nm, Em=511 nm, with a cutoff filter at 495 nm, photomultiplier tube setting of medium, calibration on, and 6 reads/well. TG transfer reactions were performed as described above with the exception that 2.5 ng/uL TG donor particles were used. TG transfer was measured at an excitation wavelength of 538 nm while reading emission at 568 nm every 45 sec for 45 min at 37° C. with a cutoff filter at 550 nm.
Data were evaluated by obtaining an initial rate, expressed in relative fluorescence units per second, for the pseudolinear portion of the curve, often 0-500 or 1000 sec. Comparison of the rates of samples with inhibitors to an uninhibited (DMSO only) positive control yielded a percent inhibition. A plot of percent inhibition vs. log of inhibitor concentration, fit to a Sigmoidal 4 parameter equation was used to calculate […].

pIC50	Structure (SMILES)
7.39 to 7.92	Cc1ccc2c(c1)cc(C1=CCC(CNC(=O)c3ccc(-c4nc5cc(C#N)cc(C(C)C)c5o4)cc3)CC1)n2C(=O)OC(C)(C)C (stereo not shown) [Example 76]
7.39 to 7.92	CC(C)c1cc(C#N)cc2nc(-c3ccc(C(=O)NC[C@H]4CC[C@H](c5cc6ccccc6n5C)CC4)cc3)oc12 [Example 81]
7.39 to 7.92	CC(C)c1cc(C#N)cc2nc(-c3ccc(C(=O)NCC4CC=C(Cc5ccc(C(F)(F)F)cc5)CC4)cc3)oc12 (stereo not shown) [Example 47, 4-(5-Cyano-7-isopropyl-1,3-benzoxazol-2-yl)-N-({4-[4-(trifluoromethyl)benzyl]cyclohex-3-en-1-yl}methyl)benzamide]
7.39 to 7.92	CC(C)c1cc(C#N)cc2nc(-c3ccc(C(=O)NC[C@H]4CC[C@H](c5ccc(C(F)(F)F)cc5)CC4)cc3)oc12 [Example 53]
7.39 to 7.92	CC(C)c1cc(C#N)cc2nc(-c3ccc(C(=O)NCC4(c5ccccc5)CCCCC4)cc3)oc12 [Example 48]
7.39 to 7.92	CC(C)c1cc(C#N)cc2nc(-c3ccc(C(=O)NC[C@H]4CC[C@H](c5ccc(C(C)(C)C)cc5)CC4)cc3)oc12 [Example 65]
7.39 to 7.92	CC(C)c1cc(C#N)cc2nc(-c3ccc(C(=O)NC[C@H]4CC[C@@H](c5ccc(C(C)(C)C)cc5)CC4)cc3)oc12 [Example 64]
7.39 to 7.92	CC(C)c1cc(C#N)cc2nc(-c3ccc(C(=O)NC[C@H]4CC[C@H](CCOC(C)(C(F)(F)F)C(F)(F)F)CC4)cc3)oc12 [Example 45, 4-(5-Cyano-7-isopropyl-1,3-benzoxazol-2-yl)-N-[(trans-4-{2-[2,2,2-trifluoro-1-methyl-1-(trifluoromethyl)ethoxy]ethyl}cyclohexyl)methyl]benzamide]
7.39 to 7.92	CC(C)c1cc(C#N)cc2nc(-c3ccc(C(=O)NC[C@H]4CC[C@H](CC(=O)Nc5cc(C(F)(F)F)ccn5)CC4)cc3)oc12 [Example 44, 4-(5-Cyano-7-isopropyl-1,3-benzoxazol-2-yl)-N-{[trans-4-(2-oxo-2-{[4-(trifluoromethyl)pyridin-2-yl]amino}ethyl)cyclohexyl]methyl}benzamide]
7.39 to 7.92	CC(C)c1cc(C#N)cc2nc(-c3ccc(C(=O)NC[C@H]4CC[C@H](c5cc6ccccc6o5)CC4)cc3)oc12 [Example 82]
